Measurements from patent US20220119856A1, “STALL SIDE METHOD FOR THE DETECTION OF BACTERIA IN DAIRY CATTLE” (TRANSFORMATIVE TECHNOLOGIES, priority 2019, published 2022).

What was measured:
Apyrase = target: T1, Apyrase (Solanum tuberosum, UniProt P80595); assay: Inactivation of excess Apyrase in raw Bovine milk by surfactants, signal after ATP standard added; assay type: biochemical; settings: 50 ul raw Bovine milk pretreated with 284 mU Apyrase
T1 construct: purchased Sigma Chemical A6535
T1 sequence (P80595 1-454): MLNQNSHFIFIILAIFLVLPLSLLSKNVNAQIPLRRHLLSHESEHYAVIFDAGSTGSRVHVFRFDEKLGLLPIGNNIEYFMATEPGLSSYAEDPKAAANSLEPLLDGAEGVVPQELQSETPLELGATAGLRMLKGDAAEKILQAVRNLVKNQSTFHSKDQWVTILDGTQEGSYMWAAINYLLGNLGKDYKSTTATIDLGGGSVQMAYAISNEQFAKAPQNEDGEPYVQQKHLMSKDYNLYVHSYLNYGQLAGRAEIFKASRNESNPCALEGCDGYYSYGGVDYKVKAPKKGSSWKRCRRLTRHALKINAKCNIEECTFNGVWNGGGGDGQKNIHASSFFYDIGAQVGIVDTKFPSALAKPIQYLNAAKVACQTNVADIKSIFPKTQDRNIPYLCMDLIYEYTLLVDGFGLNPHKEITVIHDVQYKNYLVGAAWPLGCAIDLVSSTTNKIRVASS
Experimental: It is important to eliminate any excess Apyrase that may remain in the raw Bovine milk sample after treatment with the Apyrase enzyme that was used to eliminate endogenous ATP in Example #4. […] Among the reagents evaluated were: dimethyldioctadecylammonium chloride, laureltrimethylammonium bromide (DTAB), benzyldimethyldodecylammonium bromide (BDDABr), and cetyl trimethylammonium bromide (CTAB). The experiment was performed by adding between 0.02% and 1% of the selected surfactant to 50 ul of raw Bovine milk that had treated previously been treated with 284 mU of Apyrase as detailed in example #4. The levels of ATP were confirmed by adding 50 uL of Promega luciferin-luciferase reagent (containing 25 mM HEPES buffer (pH 7.5), 40 pg luciferase, 100 pM luciferin, and 10 mM MgSO4). As expected the readings determined on the Hygiena Ensure Luminometer were too low to measure, since all of the ATP had already been eliminated by Apyrase treatment in Example #4. After the initially readings were determined as described above, 10 uL of a 10^−8M solution of ATP standard (Sigma Chemical) was added to the samples above and the bioluminescent signal was determined on a Hygiena Ensure Luminometer. As expected a signal was now detected, since all of the excess Apyrase added earlier had been eliminated by the surfactants being evaluated. The best results were seen when the detergents benzyldimethyldodecylammonium bromide (BDDABr) at 0.05% concentration and, laureltrimethylammonium bromide (DTAB) at 0.5% and 1.0% concentrations were added to the samples.

[1] = Elimination of endogenous ATP in raw Bovine milk, luciferin-luciferase readout; assay type: biochemical
Experimental: All assays were performed using 50 uL of raw Bovine milk and 50 uL of Promega luciferin-luciferase reagent (containing 25 mM HEPES buffer (pH 7.5), 40 pg luciferase, 100 pM luciferin, and 10mM MgSO4). Bioluminescent measurements were determined using the Hygiena Ensure System. The test was performed in both 100% and 50% raw Bovine milk. […] At a concentration of 284 mUnits the apyrase is able to deplete the endogenous ATP in 50 μL of raw milk in less than 30 seconds. The diminution of ATP was so fast with higher concentrations of Apyrase (diluting the enzyme) resulting in the inability to take meaningful reading, since all of the ATP was gone within 10 seconds. There are numerous commercially available ATP-degrading enzymes that can be tested for this purpose, but in our system, the Apyrase enzyme appears more than sufficient.

[2] = Sigma Chemical A6535, vendor specification; cited from earlier work
S. aureus = assay: Rupture of gram-positive bacteria by lytic enzyme, read by bioluminescence of released ATP; assay type: cell-based; settings: 0.05% enzyme, PBS buffer, mastitic milk or healthy milk
Text: As the goal of this invention is to target and detect only gram positive organisms active in mastitis such as: S. aureus, Coagulase negative staphylococci (CoNS) and S. uberi, it is important to identify lytic enzymes that can effectively rupture the cell walls of these pathogens in the presence of raw Bovine milk. […] The action against specific gram-positive organisms of these enzymes has been verified in PBS buffered solutions, but their ability to rupture bacteria had to be verified to in raw milk. The first candidates tested in for their activity in Bovine milk were Lysostaphin (Lyso) which attacks S. aureus, and Streptococcal phage lytic enzyme (PlyC) which attacks Streptococcus uberis. In all reactions, a concentration a of 0.05% of the phage lytic enzyme was used to evaluate the time required to rupture the cell wall of gram-positive bacteria in raw Bovine milk, as well as in a Phosphate-buffered saline (PBS) solution. It was determined that that in one hour, PlyC can eradicate up to 6 logs of S. uberis in PBS buffer, and either mastitic milk or healthy milk. The degree of lysing was determined by bioluminescence produced by the ATP released from the ruptured cells as described earlier. We then lowered the bacterial load to 2 logs of S. uberis in PBS buffer, and either mastitic milk or healthy milk, and it was determined that the PlyC can eradicate this bacterial load in 3 minutes or less. Similar experiments were performed with Lysostaphin (Lyso), which attacks S. aureus, and we determined we that can eradicate up to 6 logs of S. aureus in PBS buffer, and either mastitic milk or healthy milk in under 25 minutes. We then lowered the bacterial load to 2 logs of S. aureus in PBS buffer and either mastitic milk or healthy milk, and it was determined that the Lyso can eradicate this bacterial load in 2 minutes or less.

[3] = system: somatic cells present in raw Bovine milk; assay: Rupture of somatic cells in raw Bovine milk, ATP released; assay type: cell-based; settings: in under 90 seconds; raw Bovine milk with predetermined somatic cell counts
Experimental: A number of surfactants (detergents) were evaluated for their ability to rupture the somatic cells present in raw Bovine milk samples. Among the reagents tested were Triton X100 (Sigma Chemical) and Neonol AF9-10 (Nonoxynol-9) (Elarum Petrochemicals). Determinations using both surfactants were performed on raw Bovine milk samples in which somatic cell counts were predetermined. […] The number of somatic cell ruptured was determined by quantifying the ATP released in 50 uL samples of treated raw Bovine milk (as a function of time) using 50 uL of Promega luciferin-luciferase reagent (containing 25 mM HEPES buffer (pH 7.5), 40 pg luciferase, 100 pM luciferin, and 10 mM MgSO4). Bioluminescent measurements were performed using a Hygiena Ensure luminometer and all readings were blank corrected.

CCCCCCCCCCCC[N+](C)(C)Cc1ccccc1.[Br-] [BDDABr, benzyldimethyldodecylammonium bromide]
inactivation of Apyrase (in words) (Apyrase; 0.05% surfactant): best results

CCCCCCCCCCCC[N+](C)(C)C.[Br-] [DTAB, laureltrimethylammonium bromide]
inactivation of Apyrase (in words) (Apyrase; 0.5% surfactant): best results | inactivation of Apyrase (in words) (Apyrase; 1.0% surfactant): best results

Apyrase
elimination of endogenous ATP (in words) ([1]; 100% and 50% raw Bovine milk): works well | time to deplete the endogenous ATP ([1]; 284 mUnits apyrase, 50 μL of raw milk): less than 30 seconds | time until all of the ATP was gone ([1]; higher concentrations of Apyrase): ≤ 10 s | ATPase activity of the enzyme preparation [2]: ≥ 200 units/mg protein

Lysostaphin: Lysostaphin (Lyso) which attacks S. aureus
time to eradicate bacterial load of 2 logs of S. aureus (S. aureus): ≤ 2 minutes | time to eradicate up to 6 logs of S. aureus (S. aureus): under 25 minutes | bacterial load of S. aureus eradicated (S. aureus; in under 25 minutes): up to 6 logs

Nonoxynol-9 [Neonol-9-10]
ability to rupture somatic cells (in words) [3]: superior to the Triton X100
